The results in this text go back to patent US9822115B2, “Nitrogen containing compounds and their use as antibacterial agents” (WOCKHARDT LIMITED, priority 2014, dated 2017).

≈ marks a conversion by molar mass, not a printed value. Read-outs that look alike come from different tables or passages of the source. Some results are limits rather than exact numbers.

The target in assay [1] is T1, Class D beta-lactamase, A. baumannii NCTC 13301 (OXA 23) (Acinetobacter baumannii, UniProt Q9L4P2).
T1 construct: preincubated mixture of crude enzyme and the agents; endogenous in cells; host or cells: A. baumannii NCTC 13301
T1 sequence (Q9L4P2 18-273): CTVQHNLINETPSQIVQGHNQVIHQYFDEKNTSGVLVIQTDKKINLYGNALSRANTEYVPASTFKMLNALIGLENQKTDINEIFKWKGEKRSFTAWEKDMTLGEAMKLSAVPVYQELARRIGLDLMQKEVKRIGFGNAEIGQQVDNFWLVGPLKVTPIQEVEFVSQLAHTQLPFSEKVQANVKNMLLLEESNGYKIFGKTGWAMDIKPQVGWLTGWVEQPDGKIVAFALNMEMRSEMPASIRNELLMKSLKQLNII
Put plainly: Beta-lactamase enzyme inhibition (nitrocefin, crude enzyme). In kind it is biochemical. The settings on record: Class D A. baumannii NCTC 13301 (OXA 23); read-out: Beta-lactamase enzyme inhibition IC50. The gist of the method:
(§1)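 Crude enzyme preincubated with inhibitor 10 min at 37 °C, then nitrocefin (100 uM) added for 5 min. Absorbance read at 485 nm; IC50 obtained from sigmoidal dose-response fit of absorbance versus concentration.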

The test system of assay [2] is K. pneumoniae H521 (KPC, SHV, TEM). The experiment in a line: Antibacterial activity, MIC by agar dilution (CLSI). The class given is cell-based. Particulars: Table 2, K. pneumoniae H521 (KPC, SHV, TEM). The gist of the method: (§2)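 Agar dilution per CLSI on Mueller Hinton agar with doubling compound dilutions, about 10^4 CFU/spot by multipoint inoculator. Plates incubated 16-20 h at 35±2° C in ambient air; procedure also gives 37° C for 18 h. MIC (mcg/ml) scored as growth or no growth.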

Assay [3] addresses T2, Class A beta-lactamase, K. pneumoniae ATCC 700603 (SHV 18) (Klebsiella pneumoniae, UniProt P0AD64, E235K/G234A/R39S).
T2 construct: preincubated mixture of crude enzyme and the agents; endogenous in cells; host or cells: K. pneumoniae ATCC 700603
Put plainly: biochemical. The method in brief: as §1

Assay [4] has as its system E. coli NCTC 13353. Put plainly: Zone of inhibition, compound alone and in combination with ceftazidime (agar well). In kind it is cell-based. The settings on record: for zone of inhibition at 0.25 µg/disc / zone of inhibition at 0.5 µg/disc / zone of inhibition at 1 µg/disc / zone of inhibition at […]: Escherichia coli, NCTC13353, E. coli NCTC 13353, read-out: Diameter of Zone of Inhibition; for zone of inhibition at 0.5 µg/disc: 0.5 μg/well; for zone of inhibition at 1 µg/disc: 1 μg/well. Here is the method: (§3) Determination of antibacterial activity of combinations according to invention: In a typical experiment, two sets of plates containing growth media (Molten Mueller Hilton Agar) and bacterial strains were prepared. One set of plates was taken as control (without ceftazidime) and other set contained ceftazidime. The media was allowed to solidify and wells were punched later. A two-fold serial dilution range of each of the compounds according to invention was prepared and 50 μl of each of the dilution was added into the punched well. […] The Table 5 provides the antibacterial activity of the combination comprising compounds according to invention and ceftazidime.

The test system of assay [5] is E. coli M50. The description is as above. The class given is cell-based. Particulars: for Diameter of Zone of Inhibition: E. coli M50; for zone of inhibition at 0.5 µg/disc: 0.5 μg/well; for zone of inhibition at 1 µg/disc: 1 μg/well. As for the experimental part: as §3
The test system of assay [6] is K. pneomoniae S48 (NDM, SHV, TEM). Put plainly: Antibacterial activity, MIC by agar dilution (CLSI). The class given is cell-based, K. pneumoniae. The settings on record: Table 2, K. pneomoniae S48 (NDM, SHV, TEM). The method in brief: as §2
Background: In agar dilution, organisms are placed on agar that contains the substance at set levels.

The subject of assay [7] is E. coli NCTC 13353 (CTX-M15, OXA-1). The assay is described as above. In kind it is cell-based. Particulars: E. Coli NCTC 13353 (CTX-M15, OXA-1). The method in brief: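 CLSI agar dilution on Mueller Hinton agar containing doubling compound dilutions, inoculated at about 10^4 CFU/spot from fresh cultures. Plates were incubated 18 h at 37 °C in ambient air before growth scoring. MIC is reported in mcg/ml.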

Assay [8] relates to T3, Class C beta-lactamase, E. coli M50 (CMY/DHA).
T3 construct: no borders, tags or purification printed
The class given is biochemical. Particulars: read-out: Beta-lactamase enzyme inhibition IC50. The gist of the method: as §1

The mark [9] stands for this setting: Klebsiella pneumoniae, read-out: MIC.
[10] abbreviates: Compound + Ceftazidime (10 μg/ml), 0.25 μg/well.
Where [11] appears, read: Compound + Ceftazidime (10 μg/ml).
[12] abbreviates: Escherichia coli, M50, E. coli M50, Compound + Ceftazidime (10 μg/ml), 0.25 μg/well, read-out: Diameter of Zone of Inhibition.
Where [13] appears, read: Escherichia coli, M50, E. coli M50, Compound + Ceftazidime (10 μg/ml), read-out: Diameter of Zone of Inhibition.
The mark [14] stands for this setting: Escherichia coli, M50, E. coli M50, Compound alone, read-out: Diameter of Zone of Inhibition.
Where [15] appears, read: Escherichia coli, NCTC13353, Table 2, read-out: MIC.

T2 sequence (P0AD64 22-286 R39S/G234A/E235K): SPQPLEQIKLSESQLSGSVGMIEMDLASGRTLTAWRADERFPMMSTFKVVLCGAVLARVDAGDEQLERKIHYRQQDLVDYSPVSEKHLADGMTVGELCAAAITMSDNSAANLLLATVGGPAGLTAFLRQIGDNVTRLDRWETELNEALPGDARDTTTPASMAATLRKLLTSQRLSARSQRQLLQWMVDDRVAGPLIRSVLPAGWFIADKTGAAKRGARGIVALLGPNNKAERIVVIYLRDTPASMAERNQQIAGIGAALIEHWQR

Consider `C[C@@H](N)COc1ccccc1CC(=O)NNC(=O)[C@@H]1CC[C@@H]2CN1C(=O)N2OS(=O)(=O)O` [Example 3, (2S,5R)-Sulfuric Acid mono-[2-(N′-{2-[2-((R)-2-amino-propoxy)-phenyl]-acetyl}-hydrazinocarbonyl)-7-oxo-1,6-diaza-bicyclo[3.2.1]oct-6-yl]ester], for which the IC50 in assay [1] is 2020 nM; in assay [3] it was 80 nM; in assay [8], 73 nM. The MIC amounted to 2 µg/mL (≈ 4.24 µM) in assay [2] (setting [9]), 1 µg/mL (≈ 2.12 µM) in assay [6] (setting [9]) and 1 µg/mL (≈ 2.12 µM) in assay [7] (setting [15]). For the same compound, the “Diameter of Zone of Inhibition” value in assay [4] (E. coli NCTC 13353, Compound alone, 0.25 μg/well) is listed as “No growth”; in assay [5] (Compound + Ceftazidime (10 μg/ml), […]), “No growth”; in assay [5] (Compound alone, 0.25 μg/well) it was “No growth”. The zone of inhibition at 0.25 µg/disc in assay [4] (setting [10]) worked out at 14.5 mm; in assay [5] (setting [12]) it was 10.5 mm. The zone of inhibition at 0.5 µg/disc was 17.5 mm in assay [4] (setting [11]), 10 mm in assay [4] (Compound alone), 14 mm in assay [5] (setting [13]) and 11.5 mm in assay [5] (setting [14]). For the same compound, the zone of inhibition at 1 µg/disc in assay [4] (setting [11]) came out at 21.5 mm; in assay [4] (Compound alone) it was 13 mm; in assay [5] (setting [13]), 17 mm; in assay [5] (setting [14]), 14 mm. The zone of inhibition at […] in assay [4] (setting [11]) came to 11 mm.
Consider `NCc1ccc(CC(=O)NNC(=O)[C@@H]2CC[C@@H]3CN2C(=O)N3OS(=O)(=O)O)cc1` [Example 12, (2S,5R)-sulfuric acid mono-[2-(N′-(4-aminomethyl-phenyl-acetyl)-hydrazinocarbonyl)-7-oxo-1,6-diaza-bicyclo[3.2.1]oct-6-yl]ester], for which the IC50 in assay [1] came to 539 nM; in assay [3] it was 144 nM; in assay [8], 13 nM. Further, the MIC in assay [2] (setting [9]), in assay [6] (setting [9]) and in assay [7] (setting [15]) was 0.25 µg/mL (≈ 0.585 µM) in each case. Besides, the zone of inhibition at 0.25 µg/disc in assay [4] (setting [10]) came out at 22 mm; in assay [4] (Compound alone, 0.25 μg/well), 15.5 mm; in assay [5] (setting [12]) it was 19 mm; in assay [5] (Escherichia coli, M50, E. coli M50, Compound alone, 0.25 μg/well, read-out: Diameter of Zone of Inhibition), 15 mm. Moreover, the zone of inhibition at 0.5 µg/disc in assay [4] (setting [11]) was 26 mm; in assay [4] (Compound alone), 17 mm; in assay [5] (setting [13]) it was 21 mm; in assay [5] (setting [14]), 18 mm. Besides, the zone of inhibition at 1 µg/disc in assay [4] (setting [11]) came to 29 mm; in assay [4] (Compound alone), 19 mm; in assay [5] (setting [13]), 23 mm; in assay [5] (setting [14]), 19.5 mm. In addition, the zone of inhibition at […] stood at 19 mm in assay [4] (setting [11]) and 16 mm in assay [5] (Escherichia coli, M50, E. coli M50, Compound + Ceftazidime (10 μg/ml), […], read-out: Diameter of Zone of Inhibition).
As to `CC(OC(=O)NCCOc1ccccc1CC(=O)NNC(=O)[C@@H]1CC[C@@H]2CN1C(=O)N2OS(=O)(=O)[O-])OC(=O)C(C)C.[Na+]` (stereo partly drawn) [Example 65, sodium salt of isobutyric acid 1-[2-(2-{2-oxo-2-[N′-((2S,5R)-6-sulphooxy-7-oxo-1,6-diaza-bicyclo[3.2.1]octane-2-carbonyl)-hydrazino]-ethyl}-phenoxy)-ethylcarbamoyloxy]-ethyl ester], the IC50 amounted to 537 nM in assay [1]; 8 nM in assay [3] (Class A K. pneumoniae ATCC 700603 (SHV 18), read-out: Beta-lactamase enzyme inhibition IC50); 5 nM in assay [8]. For the same compound, the MIC in assay [2], in assay [6] and in assay [7] (Table 2) was over 32 µg/mL in each case.

The term IC50 denotes the concentration at which inhibition is half-maximal. By MIC is commonly meant the lowest concentration that inhibits growth of the organism. What is called zone of inhibition is the size of the clear area around the sample on an inoculated plate.
